Holding throughout (format): functional
In test [1] the test system is Streptococcus pneumoniae. The test is described as follows: In vitro minimum inhibitory concentration against Streptococcus pneumoniae 5649.
Test [2] deals with Streptococcus pneumoniae. The test is described as follows: In vitro minimum inhibitory concentration against Streptococcus pneumoniae 5737.
For test [3], the system named is Streptococcus pyogenes. Put plainly: In vitro minimum inhibitory concentration against Streptococcus pyogenes EES61 using standard agar dilution method. On the technique in general: In agar dilution the substance is mixed into plates at graded concentrations.
The subject of test [4] is Streptococcus pneumoniae. The test is described as follows: In vitro minimum inhibitory concentration against Streptococcus pneumoniae ATCC 6303.
In test [5] the test system is Streptococcus pyogenes. Put plainly: In vitro minimum inhibitory concentration against Streptococcus pyogenes 930 using standard agar dilution method.
Test [6] concerns Streptococcus pyogenes. Put plainly: In vitro minimum inhibitory concentration against Streptococcus pyogenes PIU 2548 using standard agar dilution method.
Test [7] has as its system Staphylococcus aureus. The test is described as follows: In vitro minimum inhibitory concentration against Staphylococcus aureus A5177.
For test [8], the system named is Staphylococcus aureus. Put plainly: In vitro minimum inhibitory concentration against Staphylococcus aureus 6538P using standard agar dilution method.
The next test concerns Haemophilus influenzae. Put plainly: In vitro minimum inhibitory concentration against Haemophilus influenzae DILL using standard agar dilution method.

This is an account of results in ChEMBL document CHEMBL1133079, “Synthesis and antibacterial activity of novel 6-O-substituted erythromycin A derivatives” (2000).

Each structure is given as a SMILES string. ≈ marks a conversion by molar mass, not a printed value. Bounds are passed on as bounds.

For the compound `CC[C@H]1OC(=O)[C@H](C)[C@@H](O[C@H]2C[C@@](C)(OC)[C@@H](O)[C@H](C)O2)[C@H](C)[C@@H](O[C@@H]2O[C@H](C)C[C@H](N(C)C)[C@H]2O)[C@@](C)(OCCNCc2ccccc2)C[C@@H](C)C(=O)[C@H](C)[C@@H](O)[C@]1(C)O`, the MIC was 32 µg/mL (≈ 36.9 µM) in the test with Streptococcus pneumoniae [1]; over 128 µg/mL in the test with Streptococcus pneumoniae [2]; 0.25 µg/mL (≈ 0.288 µM) in the test on Streptococcus pyogenes [3]; 0.125 µg/mL (≈ 0.144 µM) against Streptococcus pneumoniae [4]; over 128 µg/mL in the test on Streptococcus pyogenes [5]; 64 µg/mL (≈ 73.8 µM) in the test on Streptococcus pyogenes [6]. The MIC came out at 12.5 µg/mL (≈ 14.4 µM) against Staphylococcus aureus [7], 0.78 µg/mL (≈ 0.9 µM) with Staphylococcus aureus [8] and 8 µg/mL (≈ 9.23 µM) against Haemophilus influenzae.

In the case of `CC[C@H]1OC(=O)[C@H](C)[C@@H](O[C@H]2C[C@@](C)(OC)[C@@H](O)[C@H](C)O2)[C@H](C)[C@@H](O[C@@H]2O[C@H](C)C[C@H](N(C)C)[C@H]2O)[C@@](C)(OC/C=C/c2cccc3ccccc23)C[C@@H](C)C(=O)[C@H](C)[C@@H](O)[C@]1(C)O`, the MIC against Streptococcus pneumoniae [1] was found to be 16 µg/mL (≈ 17.8 µM); with Streptococcus pneumoniae [2], 8 µg/mL (≈ 8.89 µM); with Streptococcus pyogenes [3], 0.06 µg/mL (≈ 0.0667 µM); against Streptococcus pneumoniae [4] it was 0.25 µg/mL (≈ 0.278 µM); against Streptococcus pyogenes [5], 8 µg/mL (≈ 8.89 µM); against Streptococcus pyogenes [6], 8 µg/mL (≈ 8.89 µM). The results for the MIC against Staphylococcus aureus [7], against Staphylococcus aureus [8] and in the test on Haemophilus influenzae were 12.5 µg/mL (≈ 13.9 µM), 0.78 µg/mL (≈ 0.867 µM) and 4 µg/mL (≈ 4.44 µM), respectively.

As for `CC[C@H]1OC(=O)[C@H](C)[C@@H](O[C@H]2C[C@@](C)(OC)[C@@H](O)[C@H](C)O2)[C@H](C)[C@@H](O[C@@H]2O[C@H](C)C[C@H](N(C)C)[C@H]2O)[C@@](C)(OCC=O)C[C@@H](C)C(=O)[C@H](C)[C@@H](O)[C@]1(C)O`, the MIC is 64 µg/mL (≈ 82.5 µM) against Streptococcus pneumoniae [1]; over 128 µg/mL against Streptococcus pneumoniae [2]; 0.06 µg/mL (≈ 0.0773 µM) against Streptococcus pyogenes [3]; 0.5 µg/mL (≈ 0.644 µM) in the test on Streptococcus pneumoniae [4]; over 128 µg/mL against Streptococcus pyogenes [5]; 128 µg/mL (≈ 165 µM) in the test with Streptococcus pyogenes [6]. The MIC is 25 µg/mL (≈ 32.2 µM) against Staphylococcus aureus [7], 0.78 µg/mL (≈ 1.01 µM) against Staphylococcus aureus [8] and 8 µg/mL (≈ 10.3 µM) against Haemophilus influenzae.

Consider `C=CCO[C@@]1(C)C[C@@H](C)C(=O)[C@H](C)[C@@H](O)[C@](C)(O)[C@@H](CC)OC(=O)[C@H](C)[C@@H](O[C@H]2C[C@@](C)(OC)[C@@H](O)[C@H](C)O2)[C@H](C)[C@H]1O[C@@H]1O[C@H](C)C[C@H](N(C)C)[C@H]1O`, for which the MIC with Streptococcus pyogenes [5] was over 128 µg/mL; in the test with Streptococcus pyogenes [6] it was 64 µg/mL (≈ 82.7 µM); against Staphylococcus aureus [7], 12.5 µg/mL (≈ 16.1 µM); in the test on Staphylococcus aureus [8] it was 0.78 µg/mL (≈ 1.01 µM); in the test with Haemophilus influenzae it was 32 µg/mL (≈ 41.3 µM).

On to `CC[C@H]1OC(=O)[C@H](C)[C@@H](O[C@H]2C[C@@](C)(OC)[C@@H](O)[C@H](C)O2)[C@H](C)[C@@H](O[C@@H]2O[C@H](C)C[C@H](N(C)C)[C@H]2O)[C@@](C)(OCCO)C[C@@H](C)C(=O)[C@H](C)[C@@H](O)[C@]1(C)O`, for which the MIC in the test with Streptococcus pneumoniae [1] is 32 µg/mL (≈ 41.1 µM); against Streptococcus pneumoniae [2] it was over 64 µg/mL; in the test with Streptococcus pyogenes [3] it was 0.125 µg/mL (≈ 0.161 µM); with Streptococcus pneumoniae [4], 0.125 µg/mL (≈ 0.161 µM); against Streptococcus pyogenes [5], over 64 µg/mL; against Streptococcus pyogenes [6], 64 µg/mL (≈ 82.3 µM). The MIC against Staphylococcus aureus [7] is 6.2 µg/mL (≈ 7.97 µM); against Staphylococcus aureus [8], 0.39 µg/mL (≈ 0.501 µM); against Haemophilus influenzae, 8 µg/mL (≈ 10.3 µM).

For the compound `CC[C@H]1OC(=O)[C@H](C)[C@@H](O[C@H]2C[C@@](C)(OC)[C@@H](O)[C@H](C)O2)[C@H](C)[C@@H](O[C@@H]2O[C@H](C)C[C@H](N(C)C)[C@H]2O)[C@@](C)(OCc2ccccc2)C[C@@H](C)C(=O)[C@H](C)[C@@H](O)[C@]1(C)O`, the MIC against Streptococcus pneumoniae [1] was 16 µg/mL (≈ 19.4 µM); against Streptococcus pneumoniae [2], 64 µg/mL (≈ 77.7 µM); in the test on Streptococcus pyogenes [3] it was 0.06 µg/mL (≈ 0.0728 µM); in the test on Streptococcus pyogenes [5] it was over 128 µg/mL; with Streptococcus pyogenes [6] it was 16 µg/mL (≈ 19.4 µM); in the test on Staphylococcus aureus [7], 12.5 µg/mL (≈ 15.2 µM). This compound also gave an MIC against Staphylococcus aureus [8] of 1.56 µg/mL (≈ 1.89 µM).

For `CC[C@H]1OC(=O)[C@H](C)[C@@H](O[C@H]2C[C@@](C)(OC)[C@@H](O)[C@H](C)O2)[C@H](C)[C@@H](O[C@@H]2O[C@H](C)C[C@H](N(C)C)[C@H]2O)[C@@](C)(OC/C=C/c2cnc3ccccc3c2)C[C@@H](C)C(=O)[C@H](C)[C@@H](O)[C@]1(C)O`, the MIC in the test with Streptococcus pneumoniae [1] was found to be 4 µg/mL (≈ 4.44 µM); in the test on Streptococcus pneumoniae [2], 128 µg/mL (≈ 142 µM); against Streptococcus pyogenes [3], 0.06 µg/mL (≈ 0.0666 µM); in the test on Streptococcus pneumoniae [4] it was 0.06 µg/mL (≈ 0.0666 µM); in the test with Streptococcus pyogenes [5] it was 64 µg/mL (≈ 71 µM); in the test on Streptococcus pyogenes [6], 4 µg/mL (≈ 4.44 µM). Also, the MIC was 3.1 µg/mL (≈ 3.44 µM) in the test on Staphylococcus aureus [7], 0.2 µg/mL (≈ 0.222 µM) with Staphylococcus aureus [8] and 8 µg/mL (≈ 8.88 µM) against Haemophilus influenzae.

Regarding `CC[C@H]1OC(=O)[C@H](C)[C@@H](O[C@H]2C[C@@](C)(OC)[C@@H](O)[C@H](C)O2)[C@H](C)[C@@H](O[C@@H]2O[C@H](C)C[C@H](N(C)C)[C@H]2O)[C@@](C)(OCC#N)C[C@@H](C)C(=O)[C@H](C)[C@@H](O)[C@]1(C)O`, the MIC is 16 µg/mL (≈ 20.7 µM) against Streptococcus pneumoniae [1]; over 128 µg/mL in the test with Streptococcus pneumoniae [2]; 0.03 µg/mL (≈ 0.0388 µM) against Streptococcus pyogenes [3]; 0.06 µg/mL (≈ 0.0776 µM) against Streptococcus pneumoniae [4]; over 128 µg/mL against Streptococcus pyogenes [5]; 32 µg/mL (≈ 41.4 µM) in the test with Streptococcus pyogenes [6]. The MIC in the test with Staphylococcus aureus [8] is 0.2 µg/mL (≈ 0.259 µM); against Haemophilus influenzae it was 8 µg/mL (≈ 10.3 µM).

For the compound `CC[C@H]1OC(=O)[C@H](C)[C@@H](O[C@H]2C[C@@](C)(OC)[C@@H](O)[C@H](C)O2)[C@H](C)[C@@H](O[C@@H]2O[C@H](C)C[C@H](N(C)C)[C@H]2O)[C@@](C)(OCC(O)CNCc2ccccc2)C[C@@H](C)C(=O)[C@H](C)[C@@H](O)[C@]1(C)O` (stereo partly specified), the MIC in the test with Streptococcus pneumoniae [1] was 64 µg/mL (≈ 71.3 µM); in the test with Streptococcus pneumoniae [2] it was over 128 µg/mL; in the test with Streptococcus pyogenes [3] it was 0.125 µg/mL (≈ 0.139 µM); against Streptococcus pneumoniae [4], 0.125 µg/mL (≈ 0.139 µM); in the test on Staphylococcus aureus [7], 6.2 µg/mL (≈ 6.91 µM); against Staphylococcus aureus [8], 0.39 µg/mL (≈ 0.435 µM). Also, the MIC against Haemophilus influenzae is 8 µg/mL (≈ 8.92 µM).

As for `CC[C@H]1OC(=O)[C@H](C)[C@@H](O[C@H]2C[C@@](C)(OC)[C@@H](O)[C@H](C)O2)[C@H](C)[C@@H](O[C@@H]2O[C@H](C)C[C@H](N(C)C)[C@H]2O)[C@@](C)(OCC2CO2)C[C@@H](C)C(=O)[C@H](C)[C@@H](O)[C@]1(C)O` (stereo partly specified), the MIC in the test with Streptococcus pyogenes [3] was 4 µg/mL (≈ 5.06 µM); with Streptococcus pyogenes [5] it was over 128 µg/mL; with Streptococcus pyogenes [6], over 128 µg/mL; with Staphylococcus aureus [7] it was 25 µg/mL (≈ 31.6 µM); with Staphylococcus aureus [8] it was 25 µg/mL (≈ 31.6 µM); with Haemophilus influenzae, over 128 µg/mL.

With `CC[C@H]1OC(=O)[C@H](C)[C@@H](O[C@H]2C[C@@](C)(OC)[C@@H](O)[C@H](C)O2)[C@H](C)[C@@H](O[C@@H]2O[C@H](C)C[C@H](N(C)C)[C@H]2O)[C@@](C)(OC/C=N/O)C[C@@H](C)C(=O)[C@H](C)[C@@H](O)[C@]1(C)O`, the MIC is 32 µg/mL (≈ 40.5 µM) against Streptococcus pneumoniae [1]; over 128 µg/mL with Streptococcus pneumoniae [2]; 0.015 µg/mL (≈ 0.019 µM) in the test on Streptococcus pyogenes [3]; 0.06 µg/mL (≈ 0.0759 µM) in the test with Streptococcus pneumoniae [4]; 64 µg/mL (≈ 80.9 µM) in the test on Streptococcus pyogenes [6]; 0.2 µg/mL (≈ 0.253 µM) with Staphylococcus aureus [8]. In addition, the MIC against Haemophilus influenzae turned out to be 16 µg/mL (≈ 20.2 µM).

On to `C#CCO[C@@]1(C)C[C@@H](C)C(=O)[C@H](C)[C@@H](O)[C@](C)(O)[C@@H](CC)OC(=O)[C@H](C)[C@@H](O[C@H]2C[C@@](C)(OC)[C@@H](O)[C@H](C)O2)[C@H](C)[C@H]1O[C@@H]1O[C@H](C)C[C@H](N(C)C)[C@H]1O`, for which the MIC in the test with Streptococcus pneumoniae [1] is 16 µg/mL (≈ 20.7 µM); against Streptococcus pneumoniae [2], over 128 µg/mL; in the test with Streptococcus pyogenes [3] it was 0.03 µg/mL (≈ 0.0389 µM); against Streptococcus pneumoniae [4], 0.06 µg/mL (≈ 0.0777 µM); in the test on Streptococcus pyogenes [5] it was over 128 µg/mL; with Staphylococcus aureus [7], 12.5 µg/mL (≈ 16.2 µM). The MIC was 0.2 µg/mL (≈ 0.259 µM) against Staphylococcus aureus [8] and 16 µg/mL (≈ 20.7 µM) against Haemophilus influenzae.

With `CC[C@H]1OC(=O)[C@H](C)[C@@H](O[C@H]2C[C@@](C)(OC)[C@@H](O)[C@H](C)O2)[C@H](C)[C@@H](O[C@@H]2O[C@H](C)C[C@H](N(C)C)[C@H]2O)[C@@](C)(OCC(C)=O)C[C@@H](C)C(=O)[C@H](C)[C@@H](O)[C@]1(C)O`, the figures for the MIC in the test on Streptococcus pyogenes [5], with Streptococcus pyogenes [6] and with Staphylococcus aureus [8] were over 128 µg/mL, 128 µg/mL (≈ 162 µM) and 3.1 µg/mL (≈ 3.92 µM), respectively.
